Experimental data: paper PMC7052517 (iScience, 2020)
Read-outs that look alike come from different tables or passages of the source.

Assays:
[1] = target: T1, α-Synuclein (Homo sapiens, UniProt P37840); assay: isothermal titration calorimetry; format: binding
[2] = target: T1, α-Synuclein; assay: isothermal titration calorimetry; format: binding; remark: listed apart in the source

Row | SMILES | Kd [1] | Kd [2]
1 | CC/C=C\C/C=C\C/C=C\CCCCCCCC(=O)O [ALA, α-linolenic acid] | 221 µM | –
2 | CCCCCCCC/C=C\CCCCCCCC(=O)O [OA, oleic acid] | 179 µM | –
3 | CC1=C(/C=C/C(C)=C/C=C/C(C)=C/C(=O)O)C(C)(C)CCC1 [RA, retinoic acid] | – | 0.5 µM
